“Also recorded” adds a separate entry of the source. Marks after values point to notes of the source that are not given here. Where a SMILES comes first, the peptide text is derived from it. [ ]: non-standard residue; d: D form. Phe(2,4,6-Me3) = Cc1cc(C)c(C[C@H](N)C(=O)O)c(C)c1; pGlu = O=C1CC[C@@H](C(=O)O)N1
Experiments:
[1] = system: MDA-MB-468 breast cancer cells; experiment: Transwell invasion assay, MDA-MB-468 cells; format: cell-based
Procedure: (§1) 10^5 RH30 or RD cells were plated in the upper chamber of a Matrigel-coated transwell (Corning) in 0.1 mL medium without FBS. Cells were previously incubated with different concentrations (0 nM, 100 nM, 200 nM, 500 nM and 1000 nM) of the peptides and peptide dimer for 48 hours, being also present in the medium during the cell invasion assay. In the lower chamber, 0.6 mL of medium with FBS was added. Cells were incubated at 37° ° C. for 24 hours.
(§2) After that, cells were fixed with 4% paraformaldehyde (Sigma) for 10 minutes, followed by washing with PBS. After removal of the Matrigel and remaining cells from the upper face of the membrane with a cotton swab, the cells present on the lower face were stained with a Hoechst dilution (Sigma) and were counted (5 fields for each well) with an inverted fluorescence microscope Nikon with a 10× objective. All experiments were made in triplicate. In Table 6 the % Invasiveness represents the mean percentage of invasive cells with respect to their controls.
(§3) The transwell assay with neuroblastoma cell lines (CHLA-90, BE(2)-C and SK—N-BE(2)-C)) and breast cancer cell lines (MDA-MB-231 and MDA-MB-468) was performed at the same conditions detailed for determining the % of invasiveness in rhabdomyosarcoma cells.

[2] = system: SK-N-BE(2)-C neuroblastoma cells; experiment: Transwell invasion assay, SK-N-BE(2)-C cells; format: cell-based
Procedure: as §1, §2, §3

[3] = system: BE(2)-C neuroblastoma cells; experiment: Transwell invasion assay, BE(2)-C cells; format: cell-based
Procedure: as §1, §2
(§4) The transwell assay with CHLA-90 and BE(2)-C cell lines was done following the same conditions detailed for determining the % of invasiveness in rhabdomyosarcoma cells.
as §3

[4] = system: CHLA-90 neuroblastoma cells; experiment: Transwell invasion assay, CHLA-90 cells; format: cell-based
Procedure: as §1, §2, §4, §3

[5] = system: RH30 rhabdomyosarcoma cells; experiment: Matrigel-coated transwell invasion assay, RH30 cells; format: cell-based; conditions: for % Invasiveness RH30: % invasive cells vs non-treated control
Procedure: as §1, §2

[6] = system: RD rhabdomyosarcoma cells; experiment: Rhabdomyosarcoma metastatic mice model (RD cells i.v. in tail vein); format: in vivo, SCID/Beige mice; conditions: for event-free survival vs vehicle group (in words): 27-week study; for Absence of metastases, number of mice / Absence of metastases, percentage of mice / Presence of metastases (%), percentage of mice / Presence of metastases, number of mice: 27 weeks; for body weight, treated vs vehicle-treated mice (in words): along the 27-week study
Procedure: SCID/Beige female mice aged of 5 weeks were administered subcutaneously (s.c.) at day −1 with the first dose of treatment i.e. the vehicle (PBS, Phosphate buffered saline) or the peptides. On day 0, mice were injected intravenously (i.v.) in the tail vein with 2×10^6 RD rhabdomyosarcoma cells.
Body weight was evaluated twice per week for 27 weeks. Overall survival and event-free survival were determined. At necropsy, the total number of metastases were quantified and the number of metastases per mice and their localization were also reported.

[7] = system: BE(2)-C neuroblastoma cells; experiment: Neuroblastoma metastatic mice model (BE(2)-C cells i.v. in tail vein); format: in vivo, SCID/Beige mice; conditions: for Absence of metastases, number of mice / Absence of metastases, percentage of mice / Presence of metastases (%), percentage of mice / Presence of metastases, number of mice: 13 weeks; for event-free survival, percentage of mice / event-free survival, number of mice: 13-week study; for event-free survival, number of mice: of 9 mice
Procedure: SCID/Beige female mice aged 5 weeks were administered subcutaneously (s.c.) at day −1 with the first dose of treatment, this is the vehicle (PBS) or the peptide SEQ ID NO: 7-NH2 at doses of 1 mg/kg and 2 mg/kg. On day 0, mice were injected intravenously (i.v.) in the tail vein with 2×10^5 BE(2)-C neuroblastoma cells. Afterwards, mice were treated s.c. three times per week (every 2-3 days) for 13 weeks with vehicle PBS (n=8) and SEQ ID NO: 7—NH2 1 mg/kg (n=9) and 2 mg/kg (n=9).

[8] = system: RD rhabdomyosarcoma cells; experiment: Matrigel-coated transwell invasion assay, RD cells; format: cell-based; conditions: % invasive cells vs non-treated control
Procedure: as §1, §2

[9] = In vitro stability, half-life in human plasma; format: in vitro ADME; conditions: 90% human plasma, 37° C., RP-HPLC; read-out: t½ (hours) in human plasma (converted)
Procedure: The peptides and peptide dimer synthesized and prepared in accordance with Example 1 were dissolved in water at a concentration of 6 mg/mL and warmed up to 37° C.
Human plasma was obtained as a lyophilized solid (K3 EDTA Plasma, BBI Solutions, code S112-1), reconstituted with sterile 0.9% sodium chloride solution and stored at −20° C. Human plasma was thawed and incubated at 37° C. before use.
The peptides and peptide dimer were incubated in 90% human plasma at 37° C. for different times and then precipitated with two volume equivalents of methanol. The samples were cooled in an acetone-carbon dioxide bath for a few seconds and centrifuged for 12 minutes at 4° C. at approximately 10,000 rpm. The supernatant was filtered with a 0.45 μm PVDF filter and analyzed in triplicate by RP-HPLC using an isocratic method (Eluent A=0.1% TFA in water; Eluent B=0.07% TFA in ACN, Column=Kromasil C8, 100 Å, 5 μm, 250×4.6 mm, Flow=1 mL/min, Wavelength: 220 nm, Injection volume=20 μL, Temperature=60° C.). The disappearance of the compound was determined in relation to the area of the initial time to calculate its half-life.

[10] = system: MDA-MB-231 breast cancer cells; experiment: Transwell invasion assay, MDA-MB-231 cells; format: cell-based
Procedure: as §1, §2, §3

[11] = 0.5 mg/kg s.c. three times per week
[12] = 2 mg/kg s.c. three times per week
[13] = 1 mg/kg s.c. three times per week

SMILES: CSCC[C@H](NC(=O)[C@H](CO)NC(=O)[C@H](CC(N)=O)NC(=O)[C@H](CO)NC(=O)[C@H](CO)NC(=O)[C@H](CC(=O)O)NC(=O)[C@H](CCCNC(=N)N)NC(=O)[C@H](CCCCN)NC(=O)[C@@H]1CCC(=O)N1)C(=O)N[C@@H](CC(=O)O)C(=O)N[C@@H](CC(C)C)C(=O)N1CCC[C@H]1C(=O)N[C@@H](CCC(=O)O)C(=O)N[C@@H](Cc1c(C)cc(C)cc1C)C(=O)N[C@@H](CCCCN)C(N)=O [SEQ ID NO: 7-NH2, Pyr-Lys-Arg-Asp-Ser-Ser-Asn-Ser-Met-Asp-Leu-Pro-Glu-Msa-Lys-NH2] ([pGlu]KRDSSNSMDLPE[Phe(2,4,6-Me3)]K-NH2)
- % Invasiveness MDA-MB-468 ([1]; 100 nM peptide): 96.71%
- % Invasiveness MDA-MB-468 ([1]; 200 nM peptide): 57.65%
- % Invasiveness MDA-MB-468 ([1]; 500 nM peptide): 54.53* %
- % Invasiveness MDA-MB-468 ([1]; 1000 nM peptide): 48.39* %
- effect on MDA-MB-468 invasiveness (in words) ([1]; under treatment, concentration not given): clear reduction of invasiveness
- % Invasiveness SK-N-BE(2)-C ([2]; 100 nM peptide): 84.35%
- % Invasiveness SK-N-BE(2)-C ([2]; 200 nM peptide): 91.84%
- % Invasiveness SK-N-BE(2)-C ([2]; 500 nM peptide): 73.31* %
- % Invasiveness SK-N-BE(2)-C ([2]; 500 nM peptide, listed as SEQ ID NO: 7—NH2): efficacious in inhibiting invasiveness; also recorded: significant reduction
- % Invasiveness SK-N-BE(2)-C ([2]; 1000 nM peptide): 52.70* %
- % Invasiveness BE(2)-C ([3]; 100 nM peptide): 95.15%
- % Invasiveness BE(2)-C ([3]; 200 nM peptide): 60.70* %
- % Invasiveness BE(2)-C ([3]; 500 nM peptide): 56.72* %
- % Invasiveness BE(2)-C ([3]; 1000 nM peptide): 33.21* %
- effect on BE(2)-C cell invasiveness (in words) ([3]; concentration not given): significant reduction in cell invasiveness
- % Invasiveness CHLA-90 ([4]; 100 nM peptide): 94.31%
- % Invasiveness CHLA-90 ([4]; 200 nM peptide): 52.37%
- % Invasiveness CHLA-90 ([4]; 500 nM peptide): 38.94%
- % Invasiveness CHLA-90 ([4]; 1000 nM peptide): 20.37* %
- effect on CHLA-90 cell invasiveness (in words) ([4]; concentration not given): significant reduction in cell invasiveness
- % Invasiveness RH30 ([5]; 100 nM peptide): 121.38%
- % Invasiveness RH30 ([5]; 200 nM peptide): 77.38%
- % Invasiveness RH30 ([5]; 500 nM peptide): 65.59%
- % Invasiveness RH30 ([5]; 1000 nM peptide): 63.23%
- effect on % invasiveness of RH30 cell line (in words) ([5]; concentration not stated (100-1000 nM tested)): diminishing % invasiveness without reaching significance
- event-free survival vs vehicle group (in words) ([6]; 0.5 mg/kg (lower dose)): did not show statistically significant difference; also recorded: did not show a significant effect
- Absence of metastases, number of mice [6, 11]: 1
- Absence of metastases, percentage of mice [6, 11]: 17%
- Presence of metastases (%), percentage of mice [6, 11]: 83%
- Presence of metastases, number of mice [6, 11]: 5
- body weight, treated vs vehicle-treated mice (in words) ([6]; 0.5 mg/kg): vehicle-treated mice showed a statistically significant lower body weight
- reduction in metastases formation ([6]; 0.5 mg/kg, vs PBS-treated mice): ~15%
- number of metastases per mouse vs vehicle (in words) ([6]; 2 mg/kg (higher dose), at necropsy): statistically reduced the formation of metastases per mouse; also recorded: efficacious in the reduction of the number of metastases
- Absence of metastases, number of mice [6, 12]: 5
- Absence of metastases, percentage of mice [6, 12]: 71%
- Presence of metastases (%), percentage of mice [6, 12]: 29%
- Presence of metastases, number of mice [6, 12]: 2
- event-free survival vs vehicle group (in words) ([6]; 2 mg/kg, Log-rank): significant difference
- body weight, treated vs vehicle-treated mice (in words) ([6]; 2 mg/kg): vehicle-treated mice showed a statistically significant lower body weight
- Absence of metastases, number of mice [7, 13]: 2
- Absence of metastases, percentage of mice [7, 13]: 22%
- Presence of metastases (%), percentage of mice [7, 13]: 78%
- Presence of metastases, number of mice [7, 13]: 7
- event-free survival, percentage of mice ([7]; 1 mg/kg): 22%
- event-free survival, number of mice ([7]; 1 mg/kg): 2
- Absence of metastases, number of mice [7, 12]: 5
- Absence of metastases, percentage of mice [7, 12]: 56%
- Presence of metastases (%), percentage of mice [7, 12]: 44%
- Presence of metastases, number of mice [7, 12]: 4
- event-free survival, percentage of mice ([7]; 2 mg/kg): 56%
- event-free survival, number of mice ([7]; 2 mg/kg): 5
- % Invasiveness RD ([8]; 100 nM peptide): 30.82* %
- % Invasiveness RD ([8]; 100 nM peptide, listed as SEQ ID NO: 7—NH2): below 50%
- % Invasiveness RD ([8]; 200 nM peptide): 22.94* %
- % Invasiveness RD ([8]; 500 nM peptide): 17.60* %
- % Invasiveness RD ([8]; 1000 nM peptide): 19.68* %
- half-life at 0.6 mg/mL [9]: 40.5 h
- % Invasiveness MDA-MB-231 ([10]; 100 nM peptide): 111.82%
- % Invasiveness MDA-MB-231 ([10]; 200 nM peptide): 109.71%
- % Invasiveness MDA-MB-231 ([10]; 500 nM peptide): 99.97%
- % Invasiveness MDA-MB-231 ([10]; 1000 nM peptide (highest treatment dose)): 53.69%
- % Invasiveness MDA-MB-231 ([10]; 1000 nM peptide (highest treatment dose), listed as SEQ ID NO: 7—NH2): moderate reduction

From patent publication US12544431B2, “Peptides for the treatment of cancer and/or metastasis” (BCN PEPTIDES, S.A., priority 2019, dated 2026)
